According to patent publication US20240287047A1, “PESTICIDALLY ACTIVE DIAZINE-AMIDE COMPOUNDS” (SYNGENTA CROP PROTECTION AG, priority 2021, published 2024):

Experiments:
Type in all cases: in vivo
Spodoptera littoralis = assay: Example B5: Spodoptera littoralis (Egyptian cotton leaf worm), cotton leaf discs, L1 larvae; settings: foliar, 72 h, application rate of 200 ppm, 3 days after infestation, read-out: control in at least one of the three categories (mortality, anti-feedant effect, or growth inhibition)
Description: Cotton leaf discs were placed onto agar in 24-well microtiter plates and sprayed with aqueous test solutions prepared from 10,000 ppm DMSO stock solutions. After drying the leaf discs were infested with five L1 larvae. The samples were assessed for mortality, anti-feeding effect, and growth inhibition in comparison to untreated samples 3 days after infestation. Control of Spodoptera littoralis by a test sample is given when at least one of the categories mortality, anti-feedant effect, and growth inhibition is higher than the untreated sample.

Myzus persicae = assay: Example B3: Myzus persicae (green peach aphid) intrinsic activity; settings: 120 h, test rate of 12 ppm, 5 days after infestation
Description: Test compounds prepared from 10′000 ppm DMSO stock solutions were applied by pipette into 24-well microtiter plates and mixed with sucrose solution. The plates were closed with a stretched Parafilm. A plastic stencil with 24 holes was placed onto the plate and infested pea seedlings were placed directly on the Parafilm. The infested plate was closed with a gel blotting paper and another plastic stencil and then turned upside down. The samples were assessed for mortality 5 days after infestation.

Chilo suppressalis = assay: Example B1: Chilo suppressalis (striped rice stemborer), artificial diet, L2 larvae; settings: 144 h, application rate of 200 ppm, 6 days after infestation, read-out: control in at least one of the three categories (mortality, anti-feedant effect, or growth inhibition)
Description: 24-well microtiter plates with artificial diet were treated with aqueous test solutions prepared from 10,000 ppm DMSO stock solutions by pipetting. After drying, the plates were infested with L2 larvae (6-8 per well). The samples were assessed for mortality, anti-feeding effect, and growth inhibition in comparison to untreated samples 6 days after infestation. Control of Chilo suppressalis by a test sample is given when at least one of the categories mortality, anti-feedant effect, and growth inhibition is higher than the untreated sample.

Diabrotica balteata = assay: Example B2: Diabrotica balteata (corn root worm), maize sprouts, L2 larvae; settings: for percent control (mortality or growth inhibition) at 200 ppm: Diabrotica balteata, 96 h, application rate of 200 ppm, 4 days after infestation, read-out: control in at least one of the two categories (mortality or growth inhibition)
Description: Maize sprouts placed onto an agar layer in 24-well microtiter plates were treated with aqueous test solutions prepared from 10,000 ppm DMSO stock solutions by spraying. After drying, the plates were infested with L2 larvae (6 to 10 per well). The samples were assessed for mortality and growth inhibition in comparison to untreated samples 4 days after infestation.

Plutella xylostella = assay: Example B4: Plutella xylostella (diamond back moth), artificial diet, eggs; settings: Plutella xylostella, 192 h; application rate of 200 ppm; 8 days after infestation; read-out: control in at least one of the two categories (mortality or growth inhibition)
Description: 24-well microtiter plates with artificial diet were treated with aqueous test solutions prepared from 10′000 ppm DMSO stock solutions by pipetting. After drying, Plutella eggs were pipetted through a plastic stencil onto a gel blotting paper and the plate was closed with it. The samples were assessed for mortality and growth inhibition in comparison to untreated samples 8 days after infestation.

| Structure (SMILES) | percent control (mortality, anti-feedant effect or growth inhibition) at 200 ppm (Spodoptera littoralis) | mortality at 12 ppm (Myzus persicae) | percent control (mortality, anti-feedant effect or growth inhibition) at 200 ppm (Chilo suppressalis) | percent control (mortality or growth inhibition) at 200 ppm (Diabrotica balteata) | percent control (mortality or growth inhibition) at 200 ppm (Plutella xylostella) | mortality at 50 ppm (Diabrotica balteata; Concentration 50 ppm, Diabrotica balteata (Example B32)) |
| --- | --- | --- | --- | --- | --- | --- |
| C[C@H](NC(=O)c1cc(C(F)(F)F)cc(C(C)(C)C#N)c1)c1nccnc1-c1cnccn1 [Compound E7] | ≥ 80% | ≥ 80% | ≥ 80% | ≥ 80% | ≥ 80% |  |
| C[C@@H](c1nccnc1-c1cnccn1)N(C)C(=O)c1cc(C(F)(F)F)cc(C(C)(C)C#N)c1 [Compound E12, 3-(1-cyano-1-methyl-ethyl)-N-methyl-N-[(1S)-1-(3-pyrazin-2-ylpyrazin-2-yl)ethyl]-5-(trifluoromethyl)benzamide] | ≥ 80% | ≥ 80% |  | ≥ 80% |  |  |
| CC(NC(=O)c1cc(OC(F)F)cc(OC(F)F)c1)c1nccnc1-c1cnccn1 (centres unmarked) [Compound P2, 3,5-bis(difluoromethoxy)-N-[1-(3-pyrazin-2-ylpyrazin-2-yl)ethyl]benzamide] | ≥ 80% | ≥ 80% | ≥ 80% | ≥ 80% | ≥ 80% |  |
| CC(NC(=O)c1cc(C(F)(F)F)cc(C(C)(C)C#N)c1)c1nccnc1-c1cnccn1 (centres unmarked) [Compound P5, 3-(1-cyano-1-methyl-ethyl)-N-[1-(3-pyrazin-2-ylpyrazin-2-yl)ethyl]-5-(trifluoromethyl)benzamide] | ≥ 80% |  | ≥ 80% | ≥ 80% | ≥ 80% |  |
| CC(NC(=O)c1cc(Cl)cc(Cl)c1)c1nccnc1-c1cnccn1 (centres unmarked) [Compound P8, 3,5-dichloro-N-[1-(3-pyrazin-2-ylpyrazin-2-yl)ethyl]benzamide] | ≥ 80% |  | ≥ 80% | ≥ 80% | ≥ 80% |  |
| CC(NC(=O)c1cc(C(F)F)cc(C(F)(F)F)c1)c1nccnc1-c1cnccn1 (centres unmarked) [Compound P10, 3-(difluoromethyl)-N-[1-(3-pyrazin-2-ylpyrazin-2-yl)ethyl]-5-(trifluoromethyl)benzamide] | ≥ 80% |  | ≥ 80% | ≥ 80% | ≥ 80% | 100% |
| CC(NC(=O)c1cc(C2CC2)nc(C(F)(F)F)c1)c1nccnc1-c1cnccn1 (centres unmarked) [Compound P11, 2-cyclopropyl-N-[1-(3-pyrazin-2-ylpyrazin-2-yl)ethyl]-6-(trifluoromethyl)pyridine-4-carboxamide] | ≥ 80% |  | ≥ 80% | ≥ 80% | ≥ 80% |  |
| CC(NC(=O)c1cc(Cl)cc(I)c1)c1nccnc1-c1cnccn1 (centres unmarked) [Compound P13, 3-chloro-5-iodo-N-[1-(3-pyrazin-2-ylpyrazin-2-yl)ethyl]benzamide] | ≥ 80% |  | ≥ 80% | ≥ 80% | ≥ 80% |  |
| CC(NC(=O)c1cc(C(F)(F)F)cc(S(C)(=O)=O)c1)c1nccnc1-c1cnccn1 (centres unmarked) [Compound P16, 3-methylsulfonyl-N-[1-(3-pyrazin-2-ylpyrazin-2-yl)ethyl]-5-(trifluoromethyl)benzamide] | ≥ 80% | ≥ 80% | ≥ 80% | ≥ 80% | ≥ 80% |  |
| CC(NC(=O)c1cc(OC(F)F)cc(C(F)(F)F)c1)c1nccnc1-c1cnccn1 (centres unmarked) [Compound P20] | ≥ 80% | ≥ 80% | ≥ 80% | ≥ 80% | ≥ 80% |  |
| CC(NC(=O)c1cc(Br)cc(I)c1)c1nccnc1-c1cnccn1 (centres unmarked) [Compound P24, 3-bromo-5-iodo-N-[1-(3-pyrazin-2-ylpyrazin-2-yl)ethyl]benzamide] | ≥ 80% |  | ≥ 80% | ≥ 80% | ≥ 80% |  |
| CC(NC(=O)c1cc(Cl)nc(C2(C#N)CC2)c1)c1nccnc1-c1cnccn1 (centres unmarked) [Compound P27, 2-chloro-6-(1-cyanocyclopropyl)-N-[1-(3-pyrazin-2-ylpyrazin-2-yl)ethyl]pyridine-4-carboxamide] | ≥ 80% |  | ≥ 80% | ≥ 80% | ≥ 80% |  |
| CC(c1nccnc1-c1cnccn1)N(C)C(=O)c1cc(Cl)nc(C2(C#N)CC2)c1 (centres unmarked) [Compound P29, 2-chloro-6-(1-cyanocyclopropyl)-N-methyl-N-[1-(3-pyrazin-2-ylpyrazin-2-yl)ethyl]pyridine-4-carboxamide] | ≥ 80% |  | ≥ 80% | ≥ 80% | ≥ 80% |  |
| CC(NC(=O)c1cc(OC(F)F)cc(C2(C#N)CC2)c1)c1nccnc1-c1cnccn1 (centres unmarked) [Compound P32, 3-(1-cyanocyclopropyl)-5-(difluoromethoxy)-N-[1-(3-pyrazin-2-ylpyrazin-2-yl)ethyl]benzamide] | ≥ 80% | ≥ 80% | ≥ 80% |  |  |  |
| CC(NC(=O)c1cc(I)cc(C(F)(F)F)c1)c1nccnc1-c1cnc(Cl)cn1 (centres unmarked) [Compound P34, N-[1-[3-(5-chloropyrazin-2-yl)pyrazin-2-yl]ethyl]-3-iodo-5-(trifluoromethyl)benzamide] | ≥ 80% |  | ≥ 80% | ≥ 80% | ≥ 80% |  |
| CC(NC(=O)c1cc(C(F)(F)F)cc(S(C)(=O)=O)c1)c1nccnc1-c1cnc(Cl)cn1 (centres unmarked) [Compound P35, N-[1-[3-(5-chloropyrazin-2-yl)pyrazin-2-yl]ethyl]-3-methylsulfonyl-5-(trifluoromethyl)benzamide] | ≥ 80% |  | ≥ 80% | ≥ 80% | ≥ 80% |  |
| CC(NC(=O)c1cc(C(F)(F)F)cc(C(C)(C)C#N)c1)c1nccnc1-c1cnc(Cl)cn1 (centres unmarked) [Compound P37, N-[1-[3-(5-chloropyrazin-2-yl)pyrazin-2-yl]ethyl]-3-(1-cyano-1-methyl-ethyl)-5-(trifluoromethyl)benzamide] | ≥ 80% |  | ≥ 80% | ≥ 80% | ≥ 80% |  |
